Data as given in DBAASP.
≈ marks a conversion by molar mass, not a printed value. Each block holds one compound with its values, some of them ahead of it.

Tests used:
Assay in all cases: ≥ marks a high value that may be exact or a test limit, other limits are often not marked, values filed in µg/mL are converted to µM
[1] = system: Staphylococcus aureus MR
[2] = system: Pseudomonas aeruginosa ATCC 27853
[3] = system: Staphylococcus aureus ATCC 49476
[4] = system: Candida albicans
[5] = system: Staphylococcus aureus
[6] = system: Escherichia coli
[7] = system: Bifidobacterium longum subsp. infantis
[8] = system: Bacillus subtilis ATCC 6051
[9] = system: Escherichia coli NEB5alpha
[10] = system: Acinetobacter baumannii ATCC 7978
[11] = system: Staphylococcus aureus MW2
[12] = system: Candida albicans ATCC 10231
[13] = system: Staphylococcus aureus ATCC 29231
[14] = system: Klebsiella pneumoniae WGLW2
[15] = system: Cryptococcus neoformans ATCC 32264
[16] = system: Streptococcus suis CVCC 606
[17] = system: Enterococcus faecalis CVCC 3936
[18] = system: Listeria ivanovii ATCC 19119
[19] = system: Salmonella enterica subsp. enterica serovar Pullorum CVCC 1809
[20] = system: Salmonella enterica subsp. enterica serovar Typhimurium ATCC 14028
[21] = system: Staphylococcus aureus ATCC 43300
[22] = system: Pseudomonas aeruginosa CICC 10419
[23] = system: Bacillus subtilis ATCC 6633
[24] = system: Salmonella enterica subsp. enterica serovar Pullorum CVCC 533
[25] = system: Candida albicans CGMCC 2.2411
[26] = system: Escherichia coli CVCC 1515
[27] = system: Escherichia coli CVCC 195

MIC [1]: 20.9 µM (≈ 64 µg/mL)
MIC [2]: 167 µM (≈ 512 µg/mL)
MIC [3]: 5.22 µM (≈ 16 µg/mL)
MIC [4]: 41.8 µM (≈ 128 µg/mL)
SMILES: CC[C@H](C)[C@H](NC(=O)[C@H](CO)NC(=O)[C@H](Cc1ccccc1)NC(=O)[C@H](CC(C)C)NC(=O)CNC(=O)CNC(=O)[C@@H](NC(=O)[C@@H](NC(=O)[C@H](Cc1cnc[nH]1)NC(=O)[C@H](Cc1cnc[nH]1)NC(=O)[C@@H](NC(=O)[C@@H](N)Cc1ccccc1)[C@@H](C)CC)[C@@H](C)CC)[C@@H](C)CC)C(=O)NCC(=O)N[C@@H](CCCCN)C(=O)N[C@H](C(=O)N[C@H](C(=O)N[C@@H](Cc1cnc[nH]1)C(=O)N[C@@H](CCCN=C(N)N)C(=O)N[C@@H](CC(C)C)C(=O)N[C@H](C(=O)N[C@@H](CCCN=C(N)N)C(=O)N[C@@H](CCCN=C(N)N)C(=O)N[C@@H](CCCN=C(N)N)C(=O)N[C@@H](CCCN=C(N)N)C(=O)N[C@@H](CCCN=C(N)N)C(=O)O)[C@@H](C)CC)[C@@H](C)CC)[C@@H](C)CC [FIHHIIGGLFSIGKIIHRLIRRRRR]

MIC [5]: 2450 µM (≈ 3000 µg/mL)
MIC [6]: 2450 µM (≈ 3000 µg/mL)
MIC [7]: ≥ 2450 µM
SMILES: CC(C)C[C@H](NC(=O)[C@H](CC(=O)O)NC(=O)[C@H](CCCCN)NC(=O)[C@@H](N)Cc1ccccc1)C(=O)NCC(=O)N[C@@H](CCC(=O)O)C(=O)N[C@@H](CCC(=O)O)C(=O)N[C@@H](CC(N)=O)C(=O)N[C@@H](Cc1ccccc1)C(=O)N[C@@H](CCCCN)C(=O)O [FKDLGEENFK]

MIC [8]: ≥ 1000 µM
MIC [9]: ≥ 1000 µM
SMILES: CC[C@H](C)[C@H](NC(=O)[C@H](C)NC(=O)CNC(=O)[C@H](CCCCN)NC(=O)[C@H](CCC(=O)O)NC(=O)[C@H](CCC(=O)O)NC(=O)[C@H](CC(=O)O)NC(=O)[C@H](CCC(=O)O)NC(=O)[C@H](CC(N)=O)NC(=O)[C@H](CCCN=C(N)N)NC(=O)CN)C(=O)N[C@H](C(=O)N[C@@H](CCCCN)C(=O)N[C@H](C(=O)N[C@@H](CCCCN)C(=O)NCC(=O)NCC(=O)N[C@@H](CC(C)C)C(=O)O)C(C)C)C(C)C [GRNEDEEKGAIVKVKGGL]

MIC [10]: 15.1 µM (≈ 32 µg/mL)
MIC [11]: 30.1 µM (≈ 64 µg/mL)
MIC [12]: 60.2 µM (≈ 128 µg/mL)
MIC [13]: ≥ 60.2 µM
MIC [14]: ≥ 60.2 µM
SMILES: CC[C@H](C)[C@H](NC(=O)[C@H](Cc1c[nH]c2ccccc12)NC(=O)[C@H](CCCCN)NC(=O)[C@@H](N)CC(C)C)C(=O)NCC(=O)N[C@@H](CCCCN)C(=O)N[C@@H](CCCCN)C(=O)N[C@H](C(=O)N[C@@H](Cc1c[nH]c2ccccc12)C(=O)N[C@@H](CCCN=C(N)N)C(=O)N[C@H](C(=O)NCC(=O)N[C@@H](Cc1c[nH]c2ccccc12)C(=O)N[C@@H](CC(N)=O)C(=O)N[C@@H](Cc1c[nH]c2ccccc12)C(=O)N[C@@H](CCCN=C(N)N)C(=O)O)C(C)C)[C@@H](C)CC [LKWIGKKIWRVGWNWR]

MIC [15]: ≥ 200 µM
SMILES: NCCCC[C@H](NC(=O)[C@H](CCCCN)NC(=O)[C@H](Cc1c[nH]c2ccccc12)NC(=O)[C@H](CCCCN)NC(=O)[C@H](CCCN=C(N)N)NC(=O)[C@H](CCCN=C(N)N)NC(=O)[C@H](CCCCN)NC(=O)[C@@H](N)CCCN=C(N)N)C(N)=O [RKRRKWKK]

MIC [16]: ≥ 36.3 µM
MIC [17]: 18.1 µM (≈ 32 µg/mL)
MIC [18]: 4.53 µM (≈ 8 µg/mL)
MIC [19]: 9.06 µM (≈ 16 µg/mL)
MIC [20]: 9.06 µM (≈ 16 µg/mL)
MIC [21]: 36.3 µM (≈ 64 µg/mL)
MIC [22]: ≥ 36.3 µM
MIC [23]: 18.1 µM (≈ 32 µg/mL)
MIC [24]: 18.1 µM (≈ 32 µg/mL)
MIC [25]: ≥ 36.3 µM
MIC [26]: 4.53 µM (≈ 8 µg/mL)
MIC [27]: 4.53 µM (≈ 8 µg/mL)
SMILES: CC(C)[C@H](NC(=O)[C@H](CCCCN)NC(=O)[C@H](Cc1c[nH]c2ccccc12)NC(=O)[C@H](CCCN=C(N)N)NC(=O)CNC(=O)[C@H](CCC(N)=O)NC(=O)[C@@H](NC(=O)[C@@H](N)CCCN=C(N)N)C(C)C)C(=O)N[C@@H](CCCN=C(N)N)C(=O)N[C@@H](C)C(=O)N[C@@H](CO)C(=O)N[C@@H](Cc1ccccc1)C(=O)N[C@@H](Cc1ccccc1)C(=O)N[C@@H](CCCCN)C(=O)O [RVQGRWKVRASFFK]
